Laboratory results reported in patent US12161669B2, “Compositions and methods for cell targeting therapies” (UMC UTRECHT HOLDING B.V., priority 2017, dated 2024).

Key:
Type in all cases: cell-based
RhoA = test: Intracellular RhoA distribution by confocal microscopy in EBV-LCL 48; settings: EBV-LCL 48, with or without ABP
CD277 and F-actin = test: Colocalization of CD277 and F-actin in HEK 293 cells; settings: single agent vs medium
Method: To determine colocalization between BTN3 molecules and the actin cytoskeleton, HEK 293 cells were grown onto poly-L-lysin-coated coverslips and pretreated with either calpeptin (2 μg/ml) or C3 transferase (20 μg/ml) prior to treating samples with pamidronate Cells were fixed, permeabilized and BTN3 and F-actin were stained with DyLight 680-conjugated BTN3 antibody (clone BT3.1, Novus Biologicals) and Fluorescein-coupled phalloidin (Sigma), respectively. The correlation coefficient between BTN3 and F-actin signal was determined as a measure of colocalization using Volocity software.

RhoB and CD277 = test: Proximity ligation assay of RhoB and CD277 in EBV-LCL 48 cells; settings: ABP pretreated vs medium
Daudi = test: IFNγ ELISA of γ9δ2T cell clones co-incubated with Daudi
Method: PBMCs were stained with monoclonal antibody (mAb) to Vδ2 (Vδ2-FITC clone B6). The mAb-positive fraction was either sorted in bulk, expanded on REP, and thereafter cloned by limiting dilution (donor A) or single cell-sorted using FACS sort with collection of single cells in 96 well plates (donors B, C). All FACS sorts were performed on ARIAII (BD). Eight to twelve rounds of expansion on REP preceded functional testing. As soon as the cells expanded to sufficient numbers functional testing was performed: 5*10^4 T cells were incubated overnight together with target cells at 1:1 E:T ratio in DMEM supplemented with 10% FCS and 1% pen/strep, without or in the presence of 100 uM Pamidronate Disodium salt (Calbiochem Cat #506600), supernatants were harvested the day after, and IFNγ concentration was measured using ELISA (eBioscience Ready-Set-Go! ELISA kit, Invitrogen Cat #88731688).
In order to assess on a broader range the impact of individual γ9δ2TCR on the functional activity of individual γ92δT cell clones γδ T cell clones were isolated by limiting dilution or FACS sorting. In vitro antitumor activity was determined by IFNγ production against the tumor cell line Daudi. Substantial antitumor functional heterogeneity was observed among the γ9δ2T cell clones (N=57) isolated from 4 healthy donors, with approximately 60% of the clones being reactive to the tumor cell line Daudi (FIG. 13A), when choosing a cut-off of 30 pg/ml for reliable measurement of IFNγ concentration. Bisphopshonates such as pamidronate (PAM) can enhance activity of γ9δ2T cells through induction of CD277J, facilitated by RhoB and sensed by the γ9δ2TCR. In the presence of 100 μM PAM the reactivity of investigated γ9δ2T cell clones was on average 10-fold enhanced (range 0.7-37.3; median 8.1) with >95% of the clones showing reactivity above the threshold when PAM was added (FIG. 13A). In order to assess whether activity profiles where exclusively observed for Daudi cells or also valid for other targets, the cell line HEK293FT, an additional well-characterized γδT cell target, was co-incubated with the isolated γδT cell clones. HEK293FT cell line elicited much lower cytokine secretion in the absence of PAM with only approximately 30% of γ9δ2T cell clones secreting IFNγ above cut-off (FIG. 13B).

CD277 = test: dSTORM super-resolution imaging of CD277 clusters on HEK293FT cells; settings: 100 uM pamidronate vs medium, DBSCAN
Method: HEK293FT cells were plated in eight-well Lab-Tek chambers to adhere and treated with 100 uM pamidronate overnight. For super-resolution imaging, cells were labeled with AF647-CD277 at RT. After labeling, cells were washed with PBS and fixed with 4% PFA and 0.2% gluteraldehyde for 1-2 h. Prior to super-resolution imaging, 200 μL of fresh SRB (Super-resolution buffer: 50 mM Tris, 10 mM NaCl, 10% glucose, 168.8 U/mL glucose oxidase, 1404 U/mL catalase, 10 mM cysteamine hydrochloride, pH 8.0) was added to the well. dSTORM imaging was performed using an inverted microscope (IX71; Olympus America) equipped with an oil-immersion objective 1.45-NA total internal reflection fluorescence objective (U-APO 150×; Olympus America). […]
dSTORM images were analyzed and reconstructed with custom-built MATLAB functions as described previously (Smith et al 2010, Nat Methods: Huang et al 2011, Biomed Opt Express). […]
Finally, in order to understand whether the enhanced recruitment of low affinity CTE-C13 TCR in the synapse was a result of changes in CD277 clustering due to the PAM treatment, direct stochastic optical reconstruction microscopy (dSTORM), a localization-based super-resolution imaging technique that provides ˜20 nm resolution was performed. […] To quantify the images, a density-based spatial clustering application (DBSCAN) was utilized. […]

In the case of NCCC(O)(P(=O)(O)O)P(=O)(O)O [pamidronate], the “intracellular distribution of RhoA” value (RhoA) is reported as “did not change”, the “colocalization between CD277 and F-actin” value (CD277 and F-actin) is reported as “markedly reduced” and the “proximity of RhoB and CD277 (PLA signal)” value (RhoB and CD277) is reported as “in close proximity”. The “clones showing reactivity above the threshold” value (Daudi; 100 μM PAM added, cut-off 30 pg/ml IFNγ) was greater than 95%, the “enhancement of reactivity of γ9δ2T cell clones, average” value (Daudi; 100 μM PAM vs no PAM) was 10 fold and the “enhancement of reactivity of γ9δ2T cell clones, median” value (Daudi; 100 μM PAM vs no PAM) was 8.1 fold. For the same molecule, the “enhancement of reactivity of γ9δ2T cell clones, range” value (Daudi; 100 μM PAM vs no PAM) was 0.7-37.3 fold and the “CD277 localization cluster size, density or number” value (CD277) was “did not dramatically change”.
